Measured values reported in PubChem BioAssay (NCI).
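Method: 48-hour compound exposure of cells in 96-well plates, five concentrations, linear interpolation of endpoints. TGI is the concentration that stops growth completely.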

Key:
Test in all cases: inhibition of tumour cell growth, NCI panel, 48 h
[1] = test system: A498 renal
[2] = test system: DU-145 prostate
[3] = test system: EKVX NSCLC
[4] = test system: HL-60(TB) leukemia
[5] = test system: HS 578T breast
[6] = test system: M14 melanoma
[7] = test system: MDA-N
[8] = test system: MOLT-4 leukemia
[9] = test system: NCI-H522 lung
[10] = test system: NCI/ADR-RES ovarian
[11] = test system: SF-268 CNS
[12] = test system: SF-295 CNS
[13] = test system: SK-MEL-5 melanoma
[14] = test system: SN12C renal
[15] = test system: SNB-75 CNS
[16] = test system: T-47D breast
[17] = test system: TK-10 renal
[18] = test system: UACC-257 melanoma
[19] = test system: UACC-62 melanoma
[20] = test system: LOX IMVI melanoma

| Structure (SMILES) | TGI [1] [µM] | TGI [2] [µM] | TGI [3] [µM] | TGI [4] [µM] | TGI [5] [µM] | TGI [6] [µM] | TGI [7] [µM] | TGI [8] [µM] | TGI [9] [µM] | TGI [10] [µM] | TGI [11] [µM] | TGI [12] [µM] | TGI [13] [µM] | TGI [14] [µM] | TGI [15] [µM] | TGI [16] [µM] | TGI [17] [µM] | TGI [18] [µM] | TGI [19] [µM] | TGI [20] [µM] |
| --- | --- | --- | --- | --- | --- | --- | --- | --- | --- | --- | --- | --- | --- | --- | --- | --- | --- | --- | --- | --- |
| Cc1c2c(c(C)n1-c1ccccc1)C(=O)N(CCSC(=N)N)C2=O | > 100 | > 100 | > 100 | > 100 | > 100 | > 100 | > 100 | > 100 | > 100 | > 100 | > 100 | > 100 | > 100 | > 100 | > 100 | 73.6 | > 100 | > 100 | > 100 |  |
| Cc1cc2nc(N3C(=O)/C(=C/c4cccc([N+](=O)[O-])c4)N=C3c3ccccc3)sc2cc1C |  | > 100 | 94.3 | 54.5 | > 100 | > 100 | 34.1 | 32.4 |  | > 100 | > 100 | > 100 | > 100 | > 100 | 33.2 | > 100 | > 100 | > 100 | > 100 | 55.8 |
| C[C@H](CCC1=NCCN1)[C@H]1CC[C@H]2[C@@H]3[C@H](O)C[C@@H]4C[C@H](O)CC[C@]4(C)[C@H]3CC[C@]12C | 26.1 | 27.3 | 32.3 |  | 28.5 | 28.6 | 32.7 | 27.3 | 28.5 | > 100 | 26 | 28.9 | 27.3 | 37 | 22.4 | 31.3 | 26.7 | 28.3 | 23.5 | 22.8 |
| CSCCC(NCc1c(O)ccc2ccc(=O)oc12)C(=O)O (stereo unspecified) |  | > 100 | > 100 | > 100 | > 100 | > 100 | > 100 | > 100 | > 100 | > 100 | > 100 | > 100 | > 100 | > 100 | > 100 | > 100 | > 100 | > 100 | > 100 | > 100 |
| CC[C@@H]1CN2CCC1C[C@@H]2C(O)c1ccnc2ccc(OCCN3CCN(CCOc4ccc5nccc(C(O)[C@@H]6C[C@@H]7CCN6C[C@@H]7CC)c5c4)CC3)cc12 (stereo partly specified) | 37 | 31.8 | 31.2 | 47.6 | 46.6 | 26.2 | 27.1 | 21.7 | 61.8 | > 100 | 41.2 | 30.5 | 32 | 28.9 |  | 42.1 | 29.1 | 32.1 | 30.5 | 38.5 |
| Cc1ccc(S(=O)(=O)NC(=O)NC(CO)C(=O)O)cc1 (stereo unspecified) |  | > 100 |  | > 100 | > 100 | > 100 | > 100 | > 100 | > 100 | > 100 | > 100 | > 100 | > 100 | > 100 | > 100 | > 100 | > 100 | > 100 | > 100 | > 100 |
| Cc1ccc(/C=C2\N=C(N3CCCCC3)NC2=O)cc1 |  | > 100 | > 100 | > 100 | > 100 | > 100 | > 100 | > 100 | > 100 | > 100 | > 100 | > 100 |  | > 100 |  | > 100 | > 100 | > 100 | > 100 | > 100 |
| COc1c(Cl)ccc(Cl)c1C(=O)NNC(=O)c1c(Cl)c(Cl)c(Cl)c(Cl)c1-c1nc2ccc(C(=O)c3ccccc3)cc2[nH]1 | > 100 | > 100 | > 100 | > 100 | > 100 | > 100 | > 100 | > 100 | > 100 | > 100 | > 100 | > 100 | > 100 | > 100 | > 100 | > 100 | > 100 | > 100 |  | > 100 |
| Oc1c(C2=NNC(c3cccs3)C2)ccc2ccccc12 (stereo unspecified) | 56.5 | 61.7 |  |  | 74.5 | 32.5 | 35.3 | 30.9 | 60.6 | 82 | 38.3 | 57.6 | 56.4 | 38.1 | > 100 | > 100 | > 100 | > 100 | 30.3 |  |
| CC(NC1=CC(=O)c2ncccc2C1=O)C(O)c1ccccc1 (stereo unspecified) | 27.7 | 16.6 | 29.5 | 16.5 | 25.1 | 11 | 3 | 41.8 | 24.8 | 43.1 | 53.4 | 14.9 | 2.6 | 24.9 | 9.6 | 56 | > 100 | 10.6 |  | 13.3 |
| Cc1ccc(/C=C2\CN(C)CC3C(c4ccc(C)cc4)=C(C#N)C(=O)NC23)cc1 (stereo unspecified) | > 50 | > 50 | > 50 |  | > 50 | > 50 | > 50 | > 50 | > 50 | > 50 | > 50 | > 50 | > 50 | > 50 |  | > 50 | > 50 | > 50 | > 50 | > 50 |
| COc1cc(N(CCC#N)CCC#N)ccc1/C(N=Nc1ccc(C)cc1)=N/NC(=O)c1cc(Br)ccc1O |  | 94.7 | 66.7 | 40.9 | > 100 | > 100 | > 100 | 37.3 | 50.3 | > 100 | 91.4 | > 100 | 37 | 54.9 | 75 | 47.3 | 82 | 83.8 | 45.1 | 59 |
